Assay results from PMC9604729, “Unusual Tetrahydropyridoindole-Containing Tetrapeptides with Human Nicotinic Acetylcholine Receptors Targeting Activity Discovered from Antarctica-Derived Psychrophilic Pseudogymnoascus sp. HDN17-933” (Marine Drugs, 2022).
“And” between values parts separate entries of the source, which are not always exact repeats. Equal values may be shown once. Square brackets hold non-standard residues; d marks the D form. Ends that are not written are not given here. Peptide text beside a SMILES is read from it. Tpi = O=C(O)[C@@H]1Cc2c([nH]c3ccccc23)CN1

Tests used:
human (h) α7 nAChR = target: T1, human (h) α7 nAChR (Homo sapiens, UniProt P36544); experiment: Two-electrode voltage clamp, inhibition of ACh-evoked currents at hα7 nAChR in Xenopus oocytes; assay type: cell-based; conditions: compound 100 µM; currents activated by 100 μM ACh; ratio ACh + compound to ACh alone; mean ± SD, n = 6–11
T1 construct: Jon Lindstrom (clone); host or cells: Xenopus laevis oocytes, cRNA injected
T1 sequence (P36544 23-502): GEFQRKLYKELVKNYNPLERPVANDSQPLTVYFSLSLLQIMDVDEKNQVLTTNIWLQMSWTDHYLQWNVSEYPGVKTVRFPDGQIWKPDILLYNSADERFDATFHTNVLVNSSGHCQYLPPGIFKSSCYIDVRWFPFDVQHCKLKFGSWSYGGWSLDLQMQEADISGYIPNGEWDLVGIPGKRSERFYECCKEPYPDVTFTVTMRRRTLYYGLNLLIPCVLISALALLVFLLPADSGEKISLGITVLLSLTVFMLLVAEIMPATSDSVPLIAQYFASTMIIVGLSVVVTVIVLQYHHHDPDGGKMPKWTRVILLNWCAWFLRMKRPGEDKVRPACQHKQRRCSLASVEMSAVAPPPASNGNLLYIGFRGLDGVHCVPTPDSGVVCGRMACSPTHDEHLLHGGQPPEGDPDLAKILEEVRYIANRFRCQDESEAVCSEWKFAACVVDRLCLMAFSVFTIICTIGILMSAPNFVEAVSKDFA
Experimental: (§1) All procedures were approved by the University of Wollongong Animal Ethics Committees (project number: AE2003). Female Xenopus laevis were sourced from Nasco (Fort Atkinson, WI, USA), and a maximum of four frogs were kept in a 15 L aquarium at 20–26 °C with 12 h light/dark cycle. Oocytes were obtained from five-year-old frogs anesthetized with 1.7 mg/mL ethyl 3-aminobenzoate methanesulfonate (pH 7.4 with NaHCO3). Stage V-VI oocytes (Dumont’s classification; 1200–1300 μm diameter) were defolliculated with 1.5 mg/mL collagenase Type II (Worthington Biochemical Corp., Lakewood, NJ, USA) at room temperature for 1–2 h in OR-2 solution containing (in mM): 82.5 NaCl, 2 KCl, 1 MgCl2 and 5 HEPES at pH 7.4.
(§2) The human muscle nAChR clones (α1, β1, γ, δ and ε) were purchased from Integrated DNA Technologies (Coralville, IA, USA), whereas the human α3, α9, α10, β2, and β4 clones were purchased from OriGene (Rockville, MD, USA), and all were subsequently inserted into the pT7TS vector. The human α4 and α7 clones were obtained from Prof. Jon Lindstrom (University of Pennsylvania, Philadelphia, PA, USA). Plasmid constructs of the human nAChR clones were linearized for in vitro mRNA synthesis using mMessage mMachine transcription kit (AMBION, Forster City, CA, USA).
(§3) Oocytes were injected with 5 ng cRNA for hα1β1γδ, hα1β1εδ, hα3β2, hα3β4 and hα4β2, 10 ng cRNA for hα7 nAChR, and 35 ng cRNA for hα9α10 nAChR (concentration confirmed spectrophotometrically and by gel electrophoresis). The muscle subunit cRNA ratio was 2:1:1:1 (α1:β1: γ/ε:δ), whereas the heteromeric α and β subunit cRNA ratio was 1:1, injected using glass pipettes pulled from glass capillaries (3-000-203 GX, Drummond Scientific Co., Broomall, PA, USA). Oocytes were incubated at 18 °C in sterile ND96 solution composed of (in mM): 96 NaCl, 2 KCl, 1 CaCl2, 1 MgCl2, and 5 HEPES at pH 7.4, supplemented with 5% fetal bovine serum, 50 mg/L gentamicin (GIBCO, Grand Island, NY, USA) and […] penicillin-streptomycin (GIBCO).
(§4) Electrophysiological recordings were carried out 2–5 days post cRNA microinjection. Two-electrode voltage clamp recordings of X. laevis oocytes expressing human nAChRs were performed at room temperature (21–24 °C) using a GeneClamp 500B amplifier and pClamp9 software interface (Molecular Devices, Sunnyvale, CA, USA) at a holding potential −80 mV. Voltage-recording and current-injecting electrodes were pulled from GC150T-7.5 borosilicate glass (Harvard Apparatus, Holliston, MA) and filled with 3 M KCl, giving resistances of 0.3–1 MΩ. Due to the Ca^2+ permeability of α9α10 nAChRs, 100 µM BAPTA-AM incubation was carried out before recording to prevent the activation of X. laevis oocyte endogenous Ca^2+-activated chloride channels. Oocytes expressing hα9α10 nAChRs were perfused with ND115 solution containing (in mM): 115 NaCl, 2.5 KCl, 1.8 CaCl2, and 10 HEPES at pH 7.4, whereas oocytes expressing all other nAChR subtypes were perfused with ND96 solution using a continuous Legato 270 push/pull syringe pump perfusion system (KD Scientific, Holliston, MA, USA) at a rate of 2 mL/min in an OPC-1 perfusion chamber of <20 µL volume (Automate Scientific, Berkeley, CA, USA).
(§5) Initially, oocytes were briefly washed with ND115/ND96 solution, followed by 3 applications of ACh at a half-maximal excitatory ACh concentration (EC50) for the nAChR subtypes (3 µM for hα4β2, 5 µM for hα1β1γδ and hα1β1εδ, 6 µM for hα3β2 and hα9α10, 100 µM for hα7 and 300 µM for hα3β4). Washout with bath solution was performed for 3 min between ACh applications. Oocytes were incubated with compounds for 5 min with the perfusion system turned off, followed by co-application of ACh and compound with flowing bath solution. All compound solutions were prepared in ND115/ND96 + 0.1% bovine serum albumin (BSA). Incubation with 0.1% BSA was performed to ensure that the BSA and the pressure of the perfusion system had no effect on nAChRs. […]

human (h) α1β1εδ nAChR [1] = target: T2, human (h) α1β1εδ nAChR (Homo sapiens, UniProt P02708+P11230+Q04844+Q07001); experiment: Two-electrode voltage clamp, inhibition of ACh-evoked currents at hα1β1εδ nAChR in Xenopus oocytes; assay type: cell-based; conditions: for Relative current amplitude (h) α1β1εδ: compound 100 µM, currents activated by 5 μM ACh, ratio ACh + compound to ACh alone, mean ± SD, n = 6–11
T2 construct: host or cells: Xenopus laevis oocytes, cRNA injected
Experimental: as §1, §2, §3, §4, §5
Target sequence in this assay (P02708 21-457 limits assumed): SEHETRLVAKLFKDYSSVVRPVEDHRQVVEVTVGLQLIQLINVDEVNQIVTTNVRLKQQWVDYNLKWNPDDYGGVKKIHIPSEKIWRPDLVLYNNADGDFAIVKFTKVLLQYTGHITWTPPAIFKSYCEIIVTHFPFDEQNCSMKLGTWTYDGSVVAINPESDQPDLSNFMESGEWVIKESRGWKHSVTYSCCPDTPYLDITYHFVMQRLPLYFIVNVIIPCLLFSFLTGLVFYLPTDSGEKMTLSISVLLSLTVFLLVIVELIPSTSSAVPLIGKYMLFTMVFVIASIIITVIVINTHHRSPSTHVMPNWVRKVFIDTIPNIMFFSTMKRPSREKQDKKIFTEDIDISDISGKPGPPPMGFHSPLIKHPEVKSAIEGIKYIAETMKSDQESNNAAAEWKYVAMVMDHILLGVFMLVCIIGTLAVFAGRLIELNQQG
Target sequence in this assay (P11230 24-501 limits assumed): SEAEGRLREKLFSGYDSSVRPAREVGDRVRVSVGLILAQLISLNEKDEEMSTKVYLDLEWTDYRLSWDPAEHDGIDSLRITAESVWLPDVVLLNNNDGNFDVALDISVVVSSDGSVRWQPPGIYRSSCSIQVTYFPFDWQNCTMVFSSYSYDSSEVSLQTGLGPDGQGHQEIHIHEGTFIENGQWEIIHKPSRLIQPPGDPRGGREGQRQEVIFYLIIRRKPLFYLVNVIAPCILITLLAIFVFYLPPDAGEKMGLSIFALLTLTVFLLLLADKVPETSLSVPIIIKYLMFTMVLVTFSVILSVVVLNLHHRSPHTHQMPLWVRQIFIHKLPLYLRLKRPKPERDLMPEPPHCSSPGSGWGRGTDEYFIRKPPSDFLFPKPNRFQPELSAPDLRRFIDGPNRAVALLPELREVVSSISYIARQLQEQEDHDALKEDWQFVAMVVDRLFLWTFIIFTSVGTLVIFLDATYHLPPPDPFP
Target sequence in this assay (Q04844 21-493 limits assumed): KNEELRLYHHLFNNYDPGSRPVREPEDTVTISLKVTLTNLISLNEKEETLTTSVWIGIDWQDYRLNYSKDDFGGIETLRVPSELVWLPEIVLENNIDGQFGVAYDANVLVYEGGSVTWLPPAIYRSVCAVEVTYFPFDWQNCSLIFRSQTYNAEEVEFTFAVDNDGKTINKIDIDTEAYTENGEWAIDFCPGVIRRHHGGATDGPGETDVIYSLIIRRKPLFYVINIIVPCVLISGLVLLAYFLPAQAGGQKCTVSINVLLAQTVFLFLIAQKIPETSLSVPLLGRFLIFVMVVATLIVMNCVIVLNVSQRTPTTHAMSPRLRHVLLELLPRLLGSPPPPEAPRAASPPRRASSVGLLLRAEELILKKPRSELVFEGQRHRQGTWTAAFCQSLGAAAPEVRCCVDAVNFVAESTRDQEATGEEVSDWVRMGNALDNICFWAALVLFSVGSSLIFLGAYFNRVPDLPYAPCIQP
Target sequence in this assay (Q07001 22-517 limits assumed): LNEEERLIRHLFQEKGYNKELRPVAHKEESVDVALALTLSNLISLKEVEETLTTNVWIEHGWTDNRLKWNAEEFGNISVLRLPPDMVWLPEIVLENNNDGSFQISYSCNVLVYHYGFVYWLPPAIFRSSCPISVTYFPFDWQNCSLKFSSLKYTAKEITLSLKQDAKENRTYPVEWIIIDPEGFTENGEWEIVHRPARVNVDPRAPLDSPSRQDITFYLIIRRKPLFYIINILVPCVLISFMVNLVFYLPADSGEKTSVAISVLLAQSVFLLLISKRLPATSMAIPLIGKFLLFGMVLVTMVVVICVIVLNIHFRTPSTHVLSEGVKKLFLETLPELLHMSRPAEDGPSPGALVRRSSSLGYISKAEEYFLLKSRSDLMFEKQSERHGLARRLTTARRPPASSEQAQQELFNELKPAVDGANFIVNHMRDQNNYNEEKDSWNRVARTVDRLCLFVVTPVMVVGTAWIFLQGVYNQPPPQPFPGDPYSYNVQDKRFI

human (h) α3β2 nAChR = target: T3, human (h) α3β2 nAChR (Homo sapiens, UniProt P17787+P32297); experiment: Two-electrode voltage clamp, inhibition of ACh-evoked currents at hα3β2 nAChR in Xenopus oocytes; assay type: cell-based; conditions: for Relative current amplitude (h)α3β2: compound 100 µM, currents activated by 6 μM ACh, ratio ACh + compound to ACh alone, mean ± SD, n = 6–11
T3 construct: host or cells: Xenopus laevis oocytes, cRNA injected
Experimental: as §1, §2, §3, §4, §5

human (h) α3β4 nAChR = target: T4, human (h) α3β4 nAChR (Homo sapiens, UniProt P30926+P32297); experiment: Two-electrode voltage clamp, inhibition of ACh-evoked currents at hα3β4 nAChR in Xenopus oocytes; assay type: cell-based; conditions: for Relative current amplitude (h)α3β4: compound 100 µM, currents activated by 300 μM ACh, ratio ACh + compound to ACh alone, mean ± SD, n = 6–11
T4 construct: host or cells: Xenopus laevis oocytes, cRNA injected
Experimental: as §1, §2, §3, §4, §5

human (h) α1β1γδ nAChR = target: T5, human (h) α1β1γδ nAChR (Homo sapiens, UniProt P02708+P07510+P11230+Q07001); experiment: Two-electrode voltage clamp, inhibition of ACh-evoked currents at hα1β1γδ nAChR in Xenopus oocytes; assay type: cell-based; conditions: for Relative current amplitude (h)α1β1γδ: compound 100 µM, currents activated by 5 μM ACh, ratio ACh + compound to ACh alone, mean ± SD, n = 6–11
T5 construct: host or cells: Xenopus laevis oocytes, cRNA injected
T5 sequence (P11230 24-501): as the sequence (P11230 24-501 limits assumed) above
T5 sequence (P07510 23-517): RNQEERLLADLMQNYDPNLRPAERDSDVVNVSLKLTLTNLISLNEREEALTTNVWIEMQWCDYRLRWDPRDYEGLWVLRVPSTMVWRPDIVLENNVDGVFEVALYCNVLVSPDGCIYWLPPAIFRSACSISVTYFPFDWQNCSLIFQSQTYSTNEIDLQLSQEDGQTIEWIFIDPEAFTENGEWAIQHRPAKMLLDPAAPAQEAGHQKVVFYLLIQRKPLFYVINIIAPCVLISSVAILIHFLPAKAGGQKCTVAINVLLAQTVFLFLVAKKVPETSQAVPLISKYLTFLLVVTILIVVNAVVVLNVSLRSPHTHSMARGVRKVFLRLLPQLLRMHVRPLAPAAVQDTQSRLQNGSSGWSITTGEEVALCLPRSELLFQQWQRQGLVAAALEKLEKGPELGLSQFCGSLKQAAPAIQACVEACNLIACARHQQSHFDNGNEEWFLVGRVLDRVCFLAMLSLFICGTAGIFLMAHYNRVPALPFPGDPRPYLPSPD
T5 sequence (P02708 21-457): as the sequence (P02708 21-457 limits assumed) above
T5 sequence (Q07001 22-517): as the sequence (Q07001 22-517 limits assumed) above
Experimental: as §1, §2, §3, §4, §5

human (h) α4β2 nAChR = target: T6, human (h) α4β2 nAChR (Homo sapiens, UniProt P17787+P43681); experiment: Two-electrode voltage clamp, inhibition of ACh-evoked currents at hα4β2 nAChR in Xenopus oocytes; assay type: cell-based; conditions: for Relative current amplitude (h)α4β2: compound 100 µM, currents activated by 3 μM ACh, ratio ACh + compound to ACh alone, mean ± SD, n = 6–11
T6 construct: Jon Lindstrom; β2: OriGene (clones); host or cells: Xenopus laevis oocytes, cRNA injected
T6 sequence (P17787 26-502): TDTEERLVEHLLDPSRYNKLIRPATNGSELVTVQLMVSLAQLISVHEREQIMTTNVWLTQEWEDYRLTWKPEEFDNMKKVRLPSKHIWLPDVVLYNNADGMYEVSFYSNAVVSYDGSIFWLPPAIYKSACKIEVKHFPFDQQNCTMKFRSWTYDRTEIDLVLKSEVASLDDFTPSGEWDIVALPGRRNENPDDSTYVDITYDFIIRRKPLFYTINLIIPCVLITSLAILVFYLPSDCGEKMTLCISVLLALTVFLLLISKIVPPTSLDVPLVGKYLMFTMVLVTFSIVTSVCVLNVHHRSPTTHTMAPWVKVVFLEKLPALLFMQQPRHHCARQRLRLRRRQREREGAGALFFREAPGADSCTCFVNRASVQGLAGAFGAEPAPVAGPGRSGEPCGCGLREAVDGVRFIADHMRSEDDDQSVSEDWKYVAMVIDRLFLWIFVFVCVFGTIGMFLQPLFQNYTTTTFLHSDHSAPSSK
T6 sequence (P43681 29-627): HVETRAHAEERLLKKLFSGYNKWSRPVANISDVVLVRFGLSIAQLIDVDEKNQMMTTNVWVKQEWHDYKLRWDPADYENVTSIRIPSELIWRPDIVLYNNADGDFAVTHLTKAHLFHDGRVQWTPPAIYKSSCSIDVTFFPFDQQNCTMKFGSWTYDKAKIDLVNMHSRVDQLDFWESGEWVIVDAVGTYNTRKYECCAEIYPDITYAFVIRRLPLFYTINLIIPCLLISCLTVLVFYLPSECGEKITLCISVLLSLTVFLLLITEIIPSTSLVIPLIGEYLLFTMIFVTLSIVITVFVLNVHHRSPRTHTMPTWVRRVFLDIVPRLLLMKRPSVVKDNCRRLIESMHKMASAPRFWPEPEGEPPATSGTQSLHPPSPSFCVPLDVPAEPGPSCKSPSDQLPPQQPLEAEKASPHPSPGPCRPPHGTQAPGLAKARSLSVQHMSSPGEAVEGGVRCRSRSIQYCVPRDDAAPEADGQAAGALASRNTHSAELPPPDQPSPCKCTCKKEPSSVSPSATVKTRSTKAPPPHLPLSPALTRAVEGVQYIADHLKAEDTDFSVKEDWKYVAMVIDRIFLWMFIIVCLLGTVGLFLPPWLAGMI
Experimental: as §1, §2, §3, §4, §5

human (h) α9α10 nAChR = target: T7, human (h) α9α10 nAChR (Homo sapiens, UniProt Q9GZZ6+Q9UGM1); experiment: Two-electrode voltage clamp, inhibition of ACh-evoked currents at hα9α10 nAChR in Xenopus oocytes; assay type: cell-based; conditions: for Relative current amplitude (h)α9α10: compound 100 µM, currents activated by 6 μM ACh, ratio ACh + compound to ACh alone, mean ± SD, n = 6–11
T7 construct: host or cells: Xenopus laevis oocytes, cRNA injected
T7 sequence (Q9UGM1 26-479 limits assumed): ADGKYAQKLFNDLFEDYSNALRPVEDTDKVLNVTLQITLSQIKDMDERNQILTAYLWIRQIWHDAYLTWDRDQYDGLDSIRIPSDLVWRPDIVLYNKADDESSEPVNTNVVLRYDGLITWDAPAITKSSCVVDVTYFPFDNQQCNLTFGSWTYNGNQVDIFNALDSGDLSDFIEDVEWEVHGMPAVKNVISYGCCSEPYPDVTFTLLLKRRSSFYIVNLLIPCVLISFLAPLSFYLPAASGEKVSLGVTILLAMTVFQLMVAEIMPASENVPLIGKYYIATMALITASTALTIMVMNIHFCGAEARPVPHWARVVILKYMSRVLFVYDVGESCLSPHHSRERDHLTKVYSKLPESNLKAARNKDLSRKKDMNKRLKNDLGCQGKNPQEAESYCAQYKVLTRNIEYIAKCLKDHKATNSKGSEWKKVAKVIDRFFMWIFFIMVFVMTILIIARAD
T7 sequence (Q9GZZ6 25-450): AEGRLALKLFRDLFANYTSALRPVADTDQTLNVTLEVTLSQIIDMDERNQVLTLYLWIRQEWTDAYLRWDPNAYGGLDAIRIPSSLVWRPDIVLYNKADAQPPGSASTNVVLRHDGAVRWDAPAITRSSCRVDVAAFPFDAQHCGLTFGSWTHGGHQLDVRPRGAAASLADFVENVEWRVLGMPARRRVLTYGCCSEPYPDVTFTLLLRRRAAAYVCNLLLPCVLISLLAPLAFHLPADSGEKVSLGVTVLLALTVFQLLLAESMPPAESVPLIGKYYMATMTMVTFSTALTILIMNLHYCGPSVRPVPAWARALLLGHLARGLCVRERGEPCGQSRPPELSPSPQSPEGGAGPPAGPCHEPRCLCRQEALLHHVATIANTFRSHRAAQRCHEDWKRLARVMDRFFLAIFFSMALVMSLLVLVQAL
Experimental: as §1, §2, §3, §4, §5

human (h) α1β1εδ nAChR [2] = target: T2, human (h) α1β1εδ nAChR; conditions: read-out: half-maximal inhibitory concentration (IC50), ACh-evoked currents mediated by hα1β1εδ; cited from earlier work
Balamus amphitrite = test system: Balamus amphitrite; parameters: method as in doi:10.1016/j.tetlet.2015.12.026; conditions: cited from earlier work
NF-kB = test system: NF-kB; parameters: method as in doi:10.1016/j.tet.2012.09.038; conditions: cited from earlier work
[3] = compound 100 µM (Figure 3, Table S1), 100 µM
[4] = compound 100 µM (Figure 3, Table S1)

Row | Molecule | Relative current amplitude (h)α7 (human (h) α7 nAChR) | Relative current amplitude (h) α1β1εδ (human (h) α1β1εδ nAChR [1]) | Relative current amplitude (h)α3β2 (human (h) α3β2 nAChR) | Relative current amplitude (h)α3β4 (human (h) α3β4 nAChR) | Relative current amplitude (h)α1β1γδ (human (h) α1β1γδ nAChR) | Relative current amplitude (h)α4β2 (human (h) α4β2 nAChR) | Relative current amplitude (h)α9α10 (human (h) α9α10 nAChR) | other results
1 | COC(=O)[C@@H](Cc1ccc(O)cc1)NC(=O)[C@@H](NC(=O)[C@H](NC(=O)[C@@H]1Cc2c([nH]c3ccccc23)CN1)C(C)C)C(C)C [Compound 6, psegynamide F] (H-[Tpi][dV]V[dY]-OMe) | 0.838 ± 0.066 | 0.618 ± 0.047 | 0.579 ± 0.077 | 0.777 ± 0.053 | 0.802 ± 0.096 | 0.938 ± 0.076 | 0.760 ± 0.062 | 
2 | COC(=O)[C@@H](Cc1ccccc1)NC(=O)[C@@H](NC(=O)[C@H](NC(=O)[C@@H](N)Cc1c[nH]c2ccccc12)C(C)C)C(C)C [Compound 2, psegynamide B] (H-W[dV]V[dF]-OMe) | 0.566 ± 0.072 | 0.024 ± 0.011 | 0.236 ± 0.069 | 0.071 ± 0.028 | 0.017 ± 0.014 | 0.301 ± 0.039 | 0.075 ± 0.036 | inhibition of ACh-evoked currents, α1β1εδ (human (h) α1β1εδ nAChR [1]; [3]): > 70%; inhibition at 100 µM (human (h) α3β2 nAChR; [4]): > 70%; inhibition at 100 µM (human (h) α3β4 nAChR; [4]): > 70%; inhibition of ACh-evoked currents, α1β1γδ (human (h) α1β1γδ nAChR; [3]): > 70% and > 98%; inhibition at 100 µM (human (h) α4β2 nAChR; [4]): > 70%; inhibition at 100 µM (human (h) α9α10 nAChR; [4]): > 70%
3 | α-conotoxin GI (ECCNPACGRHYSC; ends and bridges not checked; cysteine pairing not given here; UniProt X5I9Y2 50-62, looked up) |  |  |  |  |  |  |  | IC50 (human (h) α1β1εδ nAChR [2]): 20 nM
4 | trichobotryside A |  |  |  |  |  |  |  | EC50, inhibiting the larvae settlement of Balamus amphitrite (Balamus amphitrite): 2.5 µg/mL
5 | CC(C)C(NC(=O)C(N)Cc1c[nH]c2ccccc12)C(=O)NC(C(=O)NC(Cc1ccccc1)C(=O)O)C(C)C (stereo not drawn) [Compound 1, psegynamide A] (H-WVVF-OH; configuration not given here) | 0.293 ± 0.074 | 0.190 ± 0.056 | 0.435 ± 0.071 | 0.462 ± 0.069 | 0.664 ± 0.062 | 0.637± 0.053 | 0.103 ± 0.027 | 
6 | CC(=O)c1cc(C)c(O)c(C[C@]23Cc4c(O)c(C(C)=O)cc(C)c4O[C@@]2(O)[C@@H](C)OC3=O)c1O [penilactone A] |  |  |  |  |  |  |  | NF-kB inhibitory rate (NF-kB): 40%
